For nine molecules, IC50 results are on record in patent publication US20260070945A1, “MACROCYCLIC IMMUNOMODULATORS” (Bristol-Myers Squibb Company, priority 2022, published 2026).

Where a SMILES comes first, the peptide text is derived from it. Bridges are numbered along the chain shown (N, C = ends). [ ]: non-standard residue; d: D form. The star is where a group is joined. ξ: configuration not given here. Phe(4-COOH) = N[C@@H](Cc1ccc(C(=O)O)cc1)C(=O)O; Bip = N[C@@H](Cc1ccc(-c2ccccc2)cc1)C(=O)O; Phe(3-Me) = Cc1cccc(C[C@H](N)C(=O)O)c1; NH(CH2)12COOH = O=C(O)CCCCCCCCCCCCN*; Val(3-OH) = CC(C)(O)[C@H](N)C(=O)O; 4Pal = N[C@@H](Cc1ccncc1)C(=O)O; Cha = N[C@@H](CC1CCCCC1)C(=O)O; Ile(3ξ) = CCC(C)[C@H](N)C(=O)O; Thr(3ξ) = CC(O)[C@H](N)C(=O)O; 12Ado = NCCCCCCCCCCCC(=O)O; Carboxymethyl = O=C(O)C*; NMeA = CN[C@@H](C)C(=O)O; Orn = NCCC[C@H](N)C(=O)O; Aun = NCCCCCCCCCCC(=O)O; Dab = NCC[C@H](N)C(=O)O; AEEA = NCCOCCOCC(=O)O

The target in one experiment is T1, PD-1/PD-L1 interaction (PE-labeled human PD-L1-Ig binding to Jurkat cell line over-expressing human PD-1) (Homo sapiens, UniProt Q15116).
T1 construct: expressed in transfected cells; host or cells: Jurkat
T1 sequence (Q15116 25-288): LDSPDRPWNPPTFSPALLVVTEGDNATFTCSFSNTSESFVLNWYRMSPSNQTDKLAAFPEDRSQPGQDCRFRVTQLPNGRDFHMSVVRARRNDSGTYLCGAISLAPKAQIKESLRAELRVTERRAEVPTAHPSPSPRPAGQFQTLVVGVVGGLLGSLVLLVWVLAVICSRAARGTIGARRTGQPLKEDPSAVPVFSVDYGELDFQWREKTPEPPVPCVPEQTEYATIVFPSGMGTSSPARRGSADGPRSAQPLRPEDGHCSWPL
Nature of the experiment: Jurkat-PD-1 Cell Binding High-Content Screening Assay (CBA). To be noted: Jurkat-hPD-1 cells, PE-labeled PD-L1-Ig 20 nM final; read-out: Jurkat HPD1 PDL1 IC50. In short, it runs like this: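 In this imaging assay, cells in 10% FCS medium see compound for 2 h at 37 °C and then labeled ligand at 20 nM final for 1 h. Paraformaldehyde fixation, Hoechst 33342 staining and dPBS washes precede image capture.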
Turning to `CC(C)C[C@@H]1NC(=O)[C@H](Cc2c[nH]c3ccccc23)NC(=O)[C@H](CC(=O)O)NC(=O)[C@H](Cc2ccc(OCC(=O)O)cc2)NC(=O)[C@H](Cc2ccc(OCC(=O)O)cc2)NC(=O)CSC[C@@H](C(=O)N[C@@H](CCCCN)C(=O)NCCCCCCCCCCC(=O)O)NC(=O)[C@H](CCCN)NC(=O)[C@H](C(C)C)NC(=O)[C@H](CC2CCCCC2)NC(=O)[C@H](CCN)NC(=O)[C@@H](CC(C)C)NC(=O)[C@H](C)N(C)C(=O)[C@H](C(C)C)NC(=O)[C@H](Cc2ccc(-c3ccccc3)cc2)NC1=O` [Example 2157] ({CH2CO}-Y(Carboxymethyl)Y(Carboxymethyl)DWL[Bip]V[NMeA][dL][Dab][Cha]V[Orn]CK[Aun]-OH; thioether N-14), the IC50 stood at 21 nM.
The same measure, in the same setting: with `CC(C)C[C@@H]1NC(=O)[C@H](Cc2c[nH]c3ccccc23)NC(=O)[C@H](CC(=O)O)NC(=O)[C@H](Cc2ccncc2)NC(=O)[C@H](Cc2ccc(OCC(=O)O)cc2)NC(=O)CSC[C@@H](C(=O)N[C@@H](CCN)C(=O)NCCCCCCCCCCC(=O)O)NC(=O)[C@H](CCC(N)=O)NC(=O)[C@H](C(C)C)NC(=O)[C@H](CC2CCCCC2)NC(=O)[C@H](CCN)NC(=O)[C@@H](CC(C)C)NC(=O)[C@H](C)N(C)C(=O)[C@H](C(C)C)NC(=O)[C@H](Cc2ccc(-c3ccccc3)cc2)NC1=O` [Example 1341] ({CH2CO}-Y(Carboxymethyl)[4Pal]DWL[Bip]V[NMeA][dL][Dab][Cha]VQC[Dab][Aun]-OH; thioether N-14) the figure was 9.1 nM; with `CCC(C)[C@@H]1NC(=O)[C@H](Cc2ccc(-c3ccccc3)cc2)NC(=O)[C@H](C(C)C)NC(=O)[C@H](Cc2c[nH]c3ccccc23)NC(=O)[C@H](CC(=O)O)NC(=O)[C@H](Cc2ccc(OCC(=O)O)cc2)NC(=O)[C@H](Cc2ccc(OCC(=O)O)cc2)NC(=O)CSC[C@@H](C(=O)N[C@H](CC(N)=O)C(=O)NCCCCCCCCCCC(=O)O)NC(=O)[C@H](CCCNC(=N)N)NC(=O)[C@H](C(C)C)NC(=O)[C@H](CC2CCCCC2)NC(=O)[C@H](CCN)NC(=O)[C@@H](CC(C)C)NC(=O)[C@H](C)N(C)C1=O` (stereo partly drawn) [Example 2287] ({CH2CO}-Y(Carboxymethyl)Y(Carboxymethyl)DWV[Bip][Ile(3ξ)][NMeA][dL][Dab][Cha]VRC[dN][Aun]-OH; thioether N-14), 17.9 nM; with `Cc1cccc(C[C@@H]2NC(=O)[C@H](CC(=O)O)NC(=O)[C@H](Cc3ccc(OCC(=O)O)cc3)NC(=O)[C@H](CCCNC(=N)N)NC(=O)CSC[C@@H](C(=O)N[C@@H](CCN)C(=O)NCCCCCCCCCCC(=O)O)NC(=O)[C@H](C(C)O)NC(=O)[C@H](C(C)C)NC(=O)[C@H](CC3CCCCC3)NC(=O)[C@H](CCN)NC(=O)[C@@H](CC(C)C)NC(=O)[C@H](C)N(C)C(=O)[C@H](Cc3ccc(OCC(=O)O)cc3)NC(=O)[C@H](Cc3ccc(-c4ccccc4)cc3)NC(=O)[C@H](CCC(=O)O)NC2=O)c1` (stereo partly drawn) [Example 2306] ({CH2CO}-RY(Carboxymethyl)D[Phe(3-Me)]E[Bip]Y(Carboxymethyl)[NMeA][dL][Dab][Cha]V[Thr(3ξ)]C[Dab][Aun]-OH; thioether N-14), 14.3 nM.
On the same count and under the same terms, the figure for `CC(C)C[C@@H]1NC(=O)[C@H](Cc2c[nH]c3ccccc23)NC(=O)[C@H](CC(=O)O)NC(=O)[C@H](Cc2ccc(C(=O)O)cc2)NC(=O)[C@H](Cc2ccc(OCC(=O)O)cc2)NC(=O)CSC[C@@H](C(=O)N[C@@H](CCCN)C(=O)NCCOCCOCC(=O)NCCCCCCCCCCCC(=O)O)NC(=O)[C@H](CO)NC(=O)[C@H](C(C)C)NC(=O)[C@H](CC2CCCCC2)NC(=O)[C@H](CCN)NC(=O)[C@@H](CC(C)C)NC(=O)[C@H](C)N(C)C(=O)[C@H](C(C)C)NC(=O)[C@H](Cc2ccc(-c3ccccc3)cc2)NC1=O` [Example 2131] ({CH2CO}-Y(Carboxymethyl)[Phe(4-COOH)]DWL[Bip]V[NMeA][dL][Dab][Cha]VSC[Orn][AEEA][12Ado]-OH; thioether N-14) is 19.1 nM.

Still in this experiment, the particulars now being: PE-labeled PD-L1-Ig 20 nM final, Jurkat-hPD-1 cells; read-out: Jurkat HPD1 PDL1 IC50.
On to `CCC(C)[C@@H]1NC(=O)[C@H](Cc2ccc(-c3ccccc3)cc2)NC(=O)[C@H](C(C)C)NC(=O)[C@H](Cc2c[nH]c3ccccc23)NC(=O)[C@H](CC(=O)O)NC(=O)[C@H](Cc2ccc(OCC(=O)O)cc2)NC(=O)[C@H](Cc2ccc(OCC(=O)O)cc2)NC(=O)CSC[C@@H](C(=O)N[C@@H](CCN)C(=O)NCCOCCOCC(=O)NCCCCCCCCCCC(=O)O)NC(=O)[C@H](CCCCNC(C)=O)NC(=O)[C@H](C(C)(C)O)NC(=O)[C@H](CC2CCCCC2)NC(=O)[C@H](Cc2cnc[nH]2)NC(=O)[C@@H](CC(C)C)NC(=O)[C@H](C)N(C)C1=O` (stereo partly drawn) [Example 2588] ({CH2CO}-Y(Carboxymethyl)Y(Carboxymethyl)DWV[Bip][Ile(3ξ)][NMeA][dL]H[Cha][Val(3-OH)]K(Ac)C[Dab][AEEA][Aun]-OH; thioether N-14), for which the half-inhibitory concentration (IC50) came to 4.2 nM.
For the molecule `Cc1cccc(C[C@@H]2NC(=O)[C@H](CC(=O)O)NC(=O)[C@H](Cc3ccc(OCC(=O)O)cc3)NC(=O)[C@H](C(C)O)NC(=O)CSC[C@@H](C(=O)NCCOCCOCC(=O)NCCCCCCCCCCC(=O)O)NC(=O)[C@H](Cc3cnc[nH]3)NC(=O)[C@H](C(C)(C)O)NC(=O)[C@H](CC3CCCCC3)NC(=O)[C@H](CCN)NC(=O)[C@@H](CC(C)C)NC(=O)[C@H](C)N(C)C(=O)[C@H](Cc3ccc(OCC(=O)O)cc3)NC(=O)[C@H](Cc3ccc(-c4ccccc4)cc3)NC(=O)[C@H](Cc3ccc(C(=O)O)cc3)NC2=O)c1` (stereo partly drawn) [Example 2431] ({CH2CO}-[Thr(3ξ)]Y(Carboxymethyl)D[Phe(3-Me)][Phe(4-COOH)][Bip]Y(Carboxymethyl)[NMeA][dL][Dab][Cha][Val(3-OH)]HC[AEEA][Aun]-OH; thioether N-14), the half-inhibitory concentration (IC50) worked out at 140 nM.
Same read-out and setting: the figure for `CCC(C)[C@@H]1NC(=O)[C@H](Cc2ccc(-c3ccccc3)cc2)NC(=O)[C@H](C(C)C)NC(=O)[C@H](Cc2c[nH]c3ccccc23)NC(=O)[C@H](CC(=O)O)NC(=O)[C@H](Cc2ccc(C(=O)O)cc2)NC(=O)[C@H](Cc2cnc[nH]2)NC(=O)CSC[C@@H](C(=O)N[C@@H](CCN)C(=O)NCCOCCOCC(=O)NCCCCCCCCCCCCC(=O)O)NC(=O)[C@H](CCC(=O)O)NC(=O)[C@H](C(C)(C)O)NC(=O)[C@H](CC2CCCCC2)NC(=O)[C@H](CCN)NC(=O)[C@@H](CC(C)C)NC(=O)[C@H](C)N(C)C1=O` (stereo partly drawn) [Example 2631] ({CH2CO}-H[Phe(4-COOH)]DWV[Bip][Ile(3ξ)][NMeA][dL][Dab][Cha][Val(3-OH)]EC[Dab][AEEA]-{NH(CH2)12COOH}; thioether N-14) is 15.5 nM; for `Cc1cccc(C[C@@H]2NC(=O)[C@H](CC(=O)O)NC(=O)[C@H](Cc3ccc(OCC(=O)O)cc3)NC(=O)[C@H](C(C)O)NC(=O)CSC[C@@H](C(=O)N[C@@H](CCN)C(=O)NCCCCCCCCCCC(=O)O)NC(=O)[C@H](CO)NC(=O)[C@H](Cc3cnc[nH]3)NC(=O)[C@H](CC3CCCCC3)NC(=O)[C@H](CCN)NC(=O)[C@@H](CC(C)C)NC(=O)[C@H](C)N(C)C(=O)[C@H](Cc3ccc(OCC(=O)O)cc3)NC(=O)[C@H](Cc3ccc(-c4ccccc4)cc3)NC(=O)[C@H](Cc3ccc(OCC(=O)O)cc3)NC2=O)c1` (stereo partly drawn) [Example 2426] ({CH2CO}-[Thr(3ξ)]Y(Carboxymethyl)D[Phe(3-Me)]Y(Carboxymethyl)[Bip]Y(Carboxymethyl)[NMeA][dL][Dab][Cha]HSC[Dab][Aun]-OH; thioether N-14) it is 36 nM.

The term IC50 denotes the concentration that gives 50% inhibition.
